Data as given in patent US20100099564A1, “HERBICIDE COMBINATION COMPRISING DIMETHOXYTRIAZINYL-SUBSTITUTED DIFLUOROMETHANESULFONYLANILIDES” (BAYER CROPSCIENCE AG, priority 2008, published 2010).
Read-outs that look alike come from different tables or passages of the source.

Tests used:
Type in all cases: in vivo
[1] = system: Triticum aestivum (TRZAS); test: Post-emergence action, greenhouse pot test, visual scoring: TRZAS
Experimental: (§1) Seeds or rhizome pieces of mono- and dicotyledonous harmful and useful plants were placed in peat pots (diameter 4 cm) filled with sandy loam and then covered with soil. The pots were kept in a greenhouse under optimum conditions. In addition, harmful plants encountered in paddy rice cultivation were cultivated in pots with a water level 2 cm above the soil surface.
(§2) About three weeks after the start of the cultivation, the test plants were treated at the 2- to 3-leaf stage. The herbicides, formulated as powder or liquid concentrates, were, either alone or in the combinations according to the invention, sprayed in various dosages on to the green parts of the plants using an application rate of 600 l of water/ha (converted). For further cultivation of the plants, the pots were then again kept under optimum conditions in a greenhouse.
(§3) The visual scoring of the herbicidal effects was carried out in intervals up to 21 days after the treatment. Scoring was carried out in percent in comparison to the untreated control plants. 0%=no herbicidal activity, 100%=complete herbicidal activity=complete kill.
(§4) The percentages from the treatments with the herbicides alone (=individual application) and with the combinations according to the invention (=mixtures) were employed to calculate interactions using the method of Colby. When the observed efficacies of the mixtures exceed the formal sum of the values of the tests with individual applications, they also exceed the expected value according to Colby, which is calculated using the formula below (cf. S. R. Colby; in Weeds 15 (1967) pp. 20 to 22):
(§5) Here: • A, B=activity of components A and B in percent at a dosage of a and b g of ai/ha (=gramm of active substance per hectare), respectively. • E=expected value in % at a dosage of a+b g of ai/ha.
(§6) The combinations according to the invention of herbicides from group (A) with herbicides from group (B) were tested on a broad spectrum of important harmful plants (weed grasses, broad-leaved weeds/Cyperaceae) and useful plants: Triticum aestivum (TRZAS), Stellaria media (STEME), Lolium multiflorum (LOLMU), Veronica persica (VERPE), Alopecurus myosuroides (ALOMY), Matricaria inodora (MATIN), Brassica napus (BRSNW), Viola tricolor (VIOTR), Avena fatua (AVEFA), Amaranthus retroflexus (AMARE), Zea mays (ZEAMX), Pharbitis purpurea (PHBPU), Setaria viridis (SETVI), Fallopia (ex Polygonum) convolvulus (POLCO), Echinochloa crusgaffi (ECHCG), Abuthilon theophrasti (ABUTH), Cyperus esculentus (CYPES), Oryza sativa (ORYSA).
(§7) Of particular interest are the results shown in the tables (Tab.) below, where the following key is used: • (1) EPPO code (former Bayer code) for the treated plant (see above) • (2) Time of scoring: DAT (days after treatment) • (3) Component A tested (identifying number) • (4) Component B tested (identifying number) • (5) Dosage component A [g of ai/ha] • (6) Dosage component B [g of ai/ha] • (7) % activity found • (8) E value (calculated according to Colby; see above) • (9) Comments: “SYNERGY” =synergistic interaction (E value<% activity found); “SAFENING”=safener action on useful plant (E value>% activity found)

[2] = system: Lolium multiflorum (LOLMU); test: Post-emergence action, greenhouse pot test, visual scoring: LOLMU
Experimental: as §1, §2, §3, §4, §5, §6, §7

[3] = system: Alopecurus myosuroides (ALOMY); test: Post-emergence action, greenhouse pot test, visual scoring: ALOMY; conditions: Alopecurus myosuroides, post-emergence, read-out: % activity found; for pest or weed control at 40 g/ha: B 40 g of ai/ha
Experimental: as §1, §2, §3, §4, §5

Zea mays (ZEAMX) = test: Post-emergence action, greenhouse pot test, visual scoring: ZEAMX; conditions: for plant injury at 40 g/ha: B 40 g of ai/ha; for plant injury at 700 g/ha: B 700 g of ai/ha; for plant injury at 2100 g/ha: B 2100 g of ai/ha
Experimental: as §1, §2, §3, §4, §5, §6, §7

Setaria viridis (SETVI) = test: Post-emergence action, greenhouse pot test, visual scoring: SETVI; conditions: Setaria viridis, post-emergence, 504 h, 21 DAT, read-out: % activity found
Experimental: as §1, §2, §3, §4, §5, §6, §7

[4] = system: Cyperus esculentus (CYPES); test: Post-emergence action, greenhouse pot test, visual scoring: CYPES; conditions: 21 DAT
Experimental: as §1, §2, §3, §4, §5

Oryza sativa (ORYSA) = test: Post-emergence action, greenhouse pot test, visual scoring: ORYSA
Experimental: as §1, §2, §3, §4, §5, §6, §7

[5] = system: Matricaria inodora (MATIN); test: Post-emergence action, greenhouse pot test, visual scoring: MATIN
Experimental: as §1, §2, §3, §4, §5

Viola tricolor (VIOTR) = test: Post-emergence action, greenhouse pot test, visual scoring: VIOTR; conditions: for (7) % activity found: rate (6) 2
Experimental: as §1, §2, §3, §4, §5, §6, §7

Avena fatua (AVEFA) = test: Post-emergence action, greenhouse pot test, visual scoring: AVEFA
Experimental: as §1, §2, §3, §4, §5, §6, §7

[6] = system: Pharbitis purpurea (PHBPU); test: Post-emergence action, greenhouse pot test, visual scoring: PHBPU; conditions: 21 DAT
Experimental: as §1, §2, §3, §4, §5, §6, §7

[7] = system: Fallopia (ex Polygonum) convolvulus (POLCO); test: Post-emergence action, greenhouse pot test, visual scoring: POLCO; conditions: 21 DAT
Experimental: as §1, §2, §3, §4, §5, §6, §7

Veronica persica (VERPE) = test: Post-emergence action, greenhouse pot test, visual scoring: VERPE; conditions: 21 DAT
Experimental: as §1, §2, §3, §4, §5, §6, §7

[8] = Zea mays, post-emergence, 240 h, 10 DAT, read-out: % activity found
[9] = Zea mays, post-emergence, 504 h, 21 DAT, read-out: % activity found

O=C(Nc1ccc(F)cc1F)c1cccnc1Oc1cccc(C(F)(F)F)c1 [B3-1, N-(2,4-difluorophenyl)-2-[3-(trifluoromethyl)phenoxy]-3-pyridinecarboxamide]
plant injury at 40 g/ha ([1]; Triticum aestivum, post-emergence, 240 h, 10 DAT, B 40 g of ai/ha, read-out: % activity found): 20% | % activity found ([2]; 21 DAT, B 120 g of ai/ha): 30% | pest or weed control at 40 g/ha ([3]; 240 h, 10 DAT): 40% | pest or weed control at 40 g/ha ([3]; 504 h, 21 DAT): 10% | pest or weed control at 120 g/ha ([3]; 504 h, 21 DAT, B 120 g of ai/ha): 20% | plant injury at 40 g/ha (Zea mays (ZEAMX); [8]): 40% | plant injury at 120 g/ha (Zea mays (ZEAMX); Zea mays, post-emergence, 240 h, 10 DAT, B 120 g of ai/ha, read-out: % activity found): 40% | plant injury at 40 g/ha (Zea mays (ZEAMX); [9]): 30% | pest or weed control at 40 g/ha (Setaria viridis (SETVI); B 40 g of ai/ha): 60% | % activity found ([4]; B 40 g of ai/ha): 0% | % activity found ([4]; B 120 g of ai/ha): 0% | plant injury at 40 g/ha (Oryza sativa (ORYSA); Oryza sativa, post-emergence, 504 h, 21 DAT, B 40 g of ai/ha, read-out: % activity found): 30% | plant injury at 120 g/ha (Oryza sativa (ORYSA); Oryza sativa, post-emergence, 504 h, 21 DAT, B 120 g of ai/ha, read-out: % activity found): 50%

CCC(=O)Nc1ccc(Cl)c(Cl)c1 [B3-8, N-(3,4-dichlorophenyl)propanamide]
plant injury at 700 g/ha ([1]; Triticum aestivum, post-emergence, 504 h, 21 DAT, B 700 g of ai/ha, read-out: % activity found): 10% | % activity found ([2]; 10 DAT, B 700 g of ai/ha): 0% | pest or weed control at 700 g/ha ([3]; 504 h, 21 DAT, B 700 g of ai/ha): 0% | pest or weed control at 2100 g/ha ([3]; 504 h, 21 DAT, B 2100 g of ai/ha): 20% | % activity found ([5]; 10 DAT, B 700 g of ai/ha): 0% | % activity found ([5]; 10 DAT, B 2100 g of ai/ha): 0% | % activity found ([5]; 21 DAT, B 700 g of ai/ha): 0% | % activity found ([5]; 21 DAT, B 2100 g of ai/ha): 0% | % activity found (Viola tricolor (VIOTR); 21 DAT, B 700 g of ai/ha): 60% | % activity found (Viola tricolor (VIOTR); 21 DAT, B 2100 g of ai/ha): 70% | % activity found (Avena fatua (AVEFA); 10 DAT, B 700 g of ai/ha): 20% | % activity found (Avena fatua (AVEFA); 21 DAT, B 700 g of ai/ha): 0% | % activity found (Avena fatua (AVEFA); 21 DAT, B 2100 g of ai/ha): 10% | plant injury at 700 g/ha (Zea mays (ZEAMX); [8]): 0% | plant injury at 2100 g/ha (Zea mays (ZEAMX); [8]): 0% | plant injury at 700 g/ha (Zea mays (ZEAMX); [9]): 0% | plant injury at 2100 g/ha (Zea mays (ZEAMX); [9]): 0% | % activity found ([6]; B 2100 g of ai/ha): 40% | pest or weed control at 2100 g/ha (Setaria viridis (SETVI); B 2100 g of ai/ha): 80% | % activity found ([7]; B 700 g of ai/ha): 50% | % activity found ([4]; B 700 g of ai/ha): 0% | % activity found ([4]; B 2100 g of ai/ha): 0% | plant injury at 700 g/ha (Oryza sativa (ORYSA); Oryza sativa, post-emergence, 504 h, 21 DAT, B 700 g of ai/ha, read-out: % activity found): 0% | plant injury at 2100 g/ha (Oryza sativa (ORYSA); Oryza sativa, post-emergence, 504 h, 21 DAT, B 2100 g of ai/ha, read-out: % activity found): 0%

COCCOc1ccccc1S(=O)(=O)NC(=O)Nc1nc(OC)nc(OC)n1 [B7-6, N-[[(4,6-dimethoxy-1,3,5-triazin-2-yl)amino]carbonyl]-2-(2-methoxyethoxy)benzenesulfonamide]
% activity found ([2]; 10 DAT, dose (6) 7): 40% | % activity found ([2]; 21 DAT, dose (6) 7): 10% | % activity found (Veronica persica (VERPE); dose (6) 7): 0% | % activity found (Veronica persica (VERPE); dose (6) 21): 0% | % activity found ([4]; dose (6) 21): 0%

COC(=O)c1ccc(I)cc1S(=O)(=O)NC(=O)Nc1nc(C)nc(OC)n1.[Na] [B7-16, methyl 4-iodo-2-[[[[(4-methoxy-6-methyl-1,3,5-triazin-2-yl)amino]carbonyl]amino]sulfonyl]benzoate sodium salt]
(7) % activity found ([1]; 10 DAT, rate (6) 2): 40% | (7) % activity found ([1]; 21 DAT, rate (6) 2): 20% | (7) % activity found ([1]; 21 DAT, rate (6) 6): 60% | (7) % activity found (Viola tricolor (VIOTR); 10 DAT): 70% | (7) % activity found (Viola tricolor (VIOTR); 21 DAT): 90% | (7) % activity found (Avena fatua (AVEFA); 21 DAT, rate (6) 2): 10% | (7) % activity found (Zea mays (ZEAMX); 10 DAT, rate (6) 2): 30% | (7) % activity found (Zea mays (ZEAMX); 10 DAT, rate (6) 6): 20% | (7) % activity found (Zea mays (ZEAMX); 21 DAT, rate (6) 2): 0% | (7) % activity found (Oryza sativa (ORYSA); 10 DAT, rate (6) 2): 90% | (7) % activity found (Oryza sativa (ORYSA); 21 DAT, rate (6) 2): 70%

COC(=O)c1ccc(CNS(C)(=O)=O)cc1S(=O)(=O)NC(=O)Nc1nc(OC)cc(OC)n1 [B7-17, methyl 2-[[[[(4,6-dimethoxy-2-pyrimidinyl)amino]carbonyl]amino]sulfonyl]-4-[[(methylsulfonyl)amino]methyl]benzoate]
(7) % activity found ([1]; 10 DAT, rate (6) 2): 40% | (7) % activity found ([1]; 10 DAT, rate (6) 6): 60% | (7) % activity found ([1]; 21 DAT, rate (6) 2): 20% | (7) % activity found ([1]; 21 DAT, rate (6) 6): 70% | (7) % activity found (Avena fatua (AVEFA); 21 DAT, rate (6) 2): 20% | (7) % activity found (Avena fatua (AVEFA); 21 DAT, rate (6) 6): 70% | (7) % activity found (Zea mays (ZEAMX); 10 DAT, rate (6) 6): 40% | (7) % activity found ([7]; rate (6) 2): 40% | (7) % activity found ([7]; rate (6) 6): 50% | (7) % activity found (Oryza sativa (ORYSA); 10 DAT, rate (6) 6): 90%

COC(=O)c1csc(C)c1S(=O)(=O)NC(=O)n1nc(OC)n(C)c1=O [B8-3, methyl 4-[[[(4,5-dihydro-3-methoxy-4-methyl-5-oxo-1H-1,2,4-triazol-1-yl)carbonyl]amino]sulfonyl]-5-methyl-3-thiophenecarboxylate]
(7) % activity found ([1]; 21 DAT, rate (6) 2): 30% | (7) % activity found (Veronica persica (VERPE); rate (6) 2): 40% | (7) % activity found (Avena fatua (AVEFA); 21 DAT, rate (6) 0.7): 50% | (7) % activity found (Zea mays (ZEAMX); 21 DAT, rate (6) 2): 20% | (7) % activity found ([4]; rate (6) 0.7): 0% | (7) % activity found (Oryza sativa (ORYSA); 10 DAT, rate (6) 0.7): 50% | (7) % activity found (Oryza sativa (ORYSA); 10 DAT, rate (6) 2): 70% | (7) % activity found (Oryza sativa (ORYSA); 21 DAT, rate (6) 2): 40%

COc1cnc(OC)n2nc(NS(=O)(=O)c3c(OCC(F)F)cccc3C(F)(F)F)nc12 [B9-6, 2-(2,2-difluoroethoxy)-N-(5,8-dimethoxy[1,2,4]triazolo[1,5-c]pyrimidin-2-yl)-6-(trifluoromethyl)benzenesulfonamide]
(7) % activity found ([1]; 10 DAT, rate (6) 15): 10% | (7) % activity found ([1]; 21 DAT, rate (6) 15): 0% | (7) % activity found ([2]; 21 DAT, rate (6) 5): 20% | (7) % activity found (Zea mays (ZEAMX); 10 DAT, rate (6) 5): 0% | (7) % activity found (Zea mays (ZEAMX); 10 DAT, rate (6) 15): 30% | (7) % activity found ([6]; rate (6) 5): 10% | (7) % activity found ([6]; rate (6) 15): 30%
